Results on three compounds are retold here after paper PMC11642486 (International Journal of Molecular Sciences, 2024).

Structures can show the parent of a compound that is named as a salt. Where two headings read alike, the source gives them in different places.

One series concerns Nrf2. The series is described as follows: Nrf2 nuclear translocation by immunofluorescence in neurons. Type of series: cell-based, Wistar rats. To be noted: for lowest concentration inducing nuclear translocation (activation) of Nrf2: significant vs vehicle. The method, then:
(§1) Primary hippocampal neurons were obtained from Wistar rats on embryonic day 18. Briefly, embryos were removed from the womb under sterile conditions and decapitated to dissect the brains. Hippocampi were isolated at 4 °C in Hank’s balanced salt solution (HBSS) without calcium and magnesium, supplemented with 10 mM HEPES buffered saline and 100 U/mL of penicillin-streptomycin. The hippocampi were mechanically disaggregated using fire-polished pipettes and plated for 2–4 h in neuronal plating medium composed of minimum essential medium (MEM) enriched with 0.6% D-glucose and 10% horse serum. Neuronal plating medium was replaced by neurobasal medium supplemented with 1X B-27 and 2 mM L-glutamine. Neurons were grown for 7 days prior to the experiments. For the microglial cells, we used the BV-2 immortalized murine cell line. Microglial cells were cultured in Dulbecco’s modified Eagle medium (DMEM) with 4.5 g/L D-glucose, 2 mM L-glutamine, 100 U/mL of penicillin-streptomycin, and 10% heat-inactivated fetal bovine serum. Cells were maintained at 37 °C in a humidified incubator with 5% CO2. All culture media were purchased from Thermo Fisher Scientific (Waltham, MA, USA).
(§2) For the immunofluorescence experiments, neurons and microglia were directly seeded on glass coverslips previously treated with 1 mg/mL of poly-L-lysine. […] After the drug treatments, the cells were fixed on ice with 4% paraformaldehyde for 25 min and then permeabilized and blocked using 0.1% Triton X-100 (10 min) and 5% BSA (30 min), respectively. Cells were then incubated overnight with the primary antibodies and 1% BSA at 4 °C. The primary antibodies anti-Nrf2 (ab1375550) and anti-NF-kB p65 (ab16502) (both from Abcam, Cambridge, United Kingdom) were used at 1:200. After washing with PBS, cells were incubated with the fluorophore-conjugated secondary antibody anti-Rabbit IgG Alexa Fluor 488 (Thermo Fisher Scientific) at 1:500 for 1 h at room temperature. Cells were counterstained with the TO-PRO fluorescent dye (Thermo Fisher Scientific) to visualize the cell nuclei. Images were captured using the confocal microscope Leica TCS SP5 (Leica Microsystems, Wetzlar, Germany). For each experimental condition, five random fields were captured and analyzed using ImageJ software (National Institutes of Health, Maryland, DC, USA). Activation of Nrf2 or NF-kB was defined as nuclear translocation, measured by the increase in the mean fluorescence intensity (MFI) in the nucleus. Each experiment was repeated three times.

For series [1], the system named is nitric oxide (NO) production in microglia. As to the kind of experiment: Nitric oxide production (Griess Reagent System) in LPS-activated microglia. To be noted: for lowest concentration inhibiting the production of NO: LPS-activated microglia. Type of series: cell-based, murine. As to the method:
DMF and MMF (both from Sigma-Aldrich, Saint Louis, MO, USA) were prepared as stock solutions in dimethyl sulfoxide (DMSO); CBD (Cayman chemical, Ann Arbor, MI, USA) was prepared in ethanol (EtOH). Lipopolysaccharide (LPS) from Escherichia coli 026:B6 in an aqueous solution (Thermo Fisher Scientific) was used as proinflammatory stimuli in microglia at a final concentration of 600 ng/mL. For the LPS experiments, the concentration of fetal bovine serum in the microglia culture medium was reduced to 0.1% immediately before drug treatment. All of the compounds were titrated in their respective vehicle and diluted into the culture media for cell treatments. The final concentration of vehicle (DMSO, EtOH or H2O) was consistent for all treated cells (0.2%).
The concentration of nitrites was measured as an indirect indicator of nitric oxide (NO) production in microglia by using the colorimetric assay Griess Reagent System (Promega Biotech Ibérica, Madrid, Spain). Microglial cells were seeded in 96-well plates, previously treated with 0.1 mg/mL of poly-L-lysine, at a density of 50,000 cells/well. […] The concentration of NO was quantified at a wavelength of 520 nm in an absorbance reader plate. Experiments were repeated three times, each condition in triplicate.
(In general: Nitrite, measured by Griess reagent, commonly stands in for NO production.)

A further series has as its system NF-kB p65. As to the kind of experiment: NF-kB p65 nuclear translocation by immunofluorescence in LPS-activated microglia. Type of series: cell-based, murine. As to conditions: LPS + drug 30 min. The method, then:
Lipopolysaccharide (LPS) from Escherichia coli 026:B6 in an aqueous solution (Thermo Fisher Scientific) was used as proinflammatory stimuli in microglia at a final concentration of 600 ng/mL. For the LPS experiments, the concentration of fetal bovine serum in the microglia culture medium was reduced to 0.1% immediately before drug treatment. All of the compounds were titrated in their respective vehicle and diluted into the culture media for cell treatments. The final concentration of vehicle (DMSO, EtOH or H2O) was consistent for all treated cells (0.2%).
as §2

The subject of series [2] is BV-2 immortalized murine cell line (microglia). The series is described as follows: Cell viability assay (CellTiter-Glo) in microglia. The format is cell-based. As to the method: Cell viability was measured at 24, 48, and 72 h of treatment with different drug concentration ranges. For each cellular type, we determined the half-maximal inhibitory concentration (IC50) of each drug. In neurons, as a non-proliferative primary culture, the IC50 was defined as the drug concentration able to diminish cell viability by 50% with respect to the vehicle-treated control. In microglia, as a proliferative cell line, the IC50 was defined as the drug concentration able of inhibiting by 50% cellular proliferation with respect to the vehicle-treated control.
as §1
Neurons and microglia were both seeded at a density of 10,000 cells/well in 96-well plates previously treated with 0.1 mg/mL of poly-L-lysine (Sigma-Aldrich). […] Cell viability was determined at 24, 48, and 72 h. The percentage of viable cells was quantified using the CellTiter-Glo® Luminescent Cell Viability Assay (Promega Biotech Ibérica, Madrid, Spain) following the instructions by the manufacturer. The […] of the cell culture media alone was subtracted as the background from all readings. Cell viability in the drug-treated cells was normalized to their respective vehicle controls. Experiments were repeated three times, each condition in triplicate.
Statistical analysis was performed using Prism 8 software (GraphPad, Boston, MA, USA). For the cell viability assays, a linear regression analysis was made with logarithmic transformation of the drug concentrations in the X-axis. The coefficient of determination (R²) was calculated as a measurement of the adjustment of the data to the regression model. The Mann–Whitney test was used to compare two different conditions. The Kruskal–Wallis test was used to compare the different concentrations of each drug against the vehicle or LPS. Statistical significance was established at p < 0.05.
On the technique in general: Cellular ATP, detected with luciferase, serves as a proxy for viable cell number.

The conditions of series [3]: after oral intake of the therapeutic dose established for DMF; cited from earlier work.
The mark [4] stands for this setting: Mus musculus, Microglia, 24 h, microglia, 24 h, concentration inhibiting cellular proliferation by 50% vs vehicle, read-out: IC50 (cell viability).
Where [5] appears, read: Mus musculus, Microglia, 48 h, microglia, 48 h, concentration inhibiting cellular proliferation by 50% vs vehicle, read-out: IC50 (cell viability).
Where [6] appears, read: Mus musculus, Microglia, 72 h, microglia, 72 h, concentration inhibiting cellular proliferation by 50% vs vehicle, read-out: IC50 (cell viability).

The term IC50 denotes the point on the concentration scale where inhibition reaches its midpoint. With `C=C(C)[C@@H]1CCC(C)=C[C@H]1c1c(O)cc(CCCCC)cc1O` [CBD, cannabidiol], the “Nrf2 nuclear protein levels, fold increase vs vehicle” value is reported as 4 fold in the series on Nrf2 (4 h, 5 µM); 10 fold in the series on Nrf2 (4 h, 6 µM); 10 fold with Nrf2 (4 h, 7 µM); 4 fold in the series with Nrf2 (4 h, 8 µM); 4 fold with Nrf2 (4 h, 10 µM). Further, in the series with Nrf2 (4 h treatment), the “magnitude (peak) of Nrf2 activation, fold change of mean nuclear fluorescence intensity vs vehicle” value turned out to be 10 fold. For the same compound, the “lowest concentration inducing nuclear translocation (activation) of Nrf2” value with Nrf2 (4 h treatment) was 5 µM. Besides, the “concentration of NO in the supernatant, in words” value in series [1] (LPS + drug, 10 µM) is “almost undetectable”. In addition, the “concentration of NO in the supernatant” value in series [1] (LPS + drug, starting from 6 µM, all timepoints, LPS alone around 40 µM at 48 and 72 h) is reported as “below 10 µM”. Also, the “lowest concentration inhibiting the production of NO” value in series [1] was found to be 6 µM. For the same compound, the “effect on LPS-induced NF-kB p65 nuclear translocation, in words” value in the series with NF-kB p65 (4 µM) was “inhibition of NF-kB p65”; in the series on NF-kB p65 (6 µM), “inhibition of NF-kB p65”; in the series on NF-kB p65 (CBD concentrations higher than 6 µM) it was “this inhibition was not achieved”. Moreover, the IC50 in series [2] (Mus musculus, Microglia, 24 h, read-out: IC50 (cell viability), microglia, 24 h, concentration inhibiting cellular proliferation by 50% vs vehicle) was 12 µM; in series [2] (Mus musculus, Microglia, 48 h, read-out: IC50 (cell viability), microglia, 48 h, concentration inhibiting cellular proliferation by 50% vs vehicle), 12.2 µM; in series [2] (Mus musculus, Microglia, 72 h, read-out: IC50 (cell viability), microglia, 72 h, concentration inhibiting cellular proliferation by 50% vs vehicle), 11.8 µM; in series [2] (Mus musculus, Microglia, 72 h, read-out: IC50 (cell viability), microglia, all of the studied timepoints (24, 48, 72 h)) it was ~12 µM.
For `COC(=O)/C=C/C(=O)OC` [DMF, Dimethyl fumarate], in the series on Nrf2 (4 h treatment), the “lowest concentration inducing nuclear translocation (activation) of Nrf2” value amounted to 30 µM. Moreover, in series [1] (LPS + drug, 48 and 72 h, all studied concentrations from 1 µM, LPS alone around 40 µM), the “concentration of NO in the supernatant” value is listed as “around 20 µM”. For the same compound, in series [1], the “lowest concentration inhibiting the production of NO” value is ≤ 1 µM. For the same compound, the IC50 came to 37.2 µM in series [2] (setting [4]); 40.8 µM in series [2] (setting [5]); 73.2 µM in series [2] (setting [6]); 37 µM in series [2] (microglia, 24 h, concentration inhibiting cellular proliferation by 50% vs vehicle, read-out: IC50 (cell viability)); 73 µM in series [2] (microglia, 72 h, concentration inhibiting cellular proliferation by 50% vs vehicle, read-out: IC50 (cell viability)).
For the compound `COC(=O)/C=C/C(=O)O` [MMF, monomethyl fumarate], the “Nrf2 activation (nuclear translocation), result in words” value in the series on Nrf2 (4 h, same concentrations as DMF (up to 30 µM)) was “did not observe the nuclear translocation of Nrf2”. The “inhibition of NO production, in words” value in series [1] (LPS + drug, 24 h) is listed as “significant NO inhibition”. Moreover, the “inhibition of NO production vs LPS-treated cells, in words” value in series [1] (LPS + drug, same concentrations as DMF (from 1 µM)) is recorded as “halving the concentrations of NO”. The “effect on LPS-induced NF-kB p65 nuclear translocation, in words” value with NF-kB p65 (any of the studied concentrations) is recorded as “did not prevent the activation of NF-KB”. In series [3], the “concentration of MMF detected in the brain” value is listed as “approximately 100 µM”. In addition, the concentration for half-maximal inhibition (IC50) was 49.5 µM in series [2] (setting [4]); 41.7 µM in series [2] (setting [5]); 56.6 µM in series [2] (setting [6]); ~50 µM in series [2] (Mus musculus, Microglia, 72 h, microglia, all of the studied timepoints (24, 48, 72 h), read-out: IC50 (cell viability)).
